According to US10420748B2, “Methods of treatment associated with the granulocyte colony-stimulating factor receptor” (LIGAND PHARMACEUTICALS INCORPORATED, priority 2013, dated 2019):

Legend:
Kasumi-1 cells = experiment: Cell growth inhibition (ATPlite), Kasumi-1; type: cell-based; conditions: Homo sapiens, Kasumi-1, 72 hours, mean±SEM, n = 3, read-out: Inhibition of Tumor Cell Growth (IC50, μM) Kasumi-1
Procedure: (§1) The human acute promyelocytic leukemia cell line HL-60, the acute myeloid leukemia cell line Kasumi-1, the lung carcinoma cell line A549, the embryonic kidney cell line HEK293, and the hepatocellular carcinoma cell line HepG2 were purchased from ATCC. HL-60 and A549 cells were grown in RPMI-1640 media containing 10% fetal bovine serum (FBS). Kasumi-1 cells were grown in RPMI-1640 media containing 20% FBS. HEK293 and HepG2 cells were grown in Eagles Minimal Essential Media containing 10% FBS. Cells were plated in 96-well microtiter plates at a density of either 2000 cells/well (A549 cells) or 5000 cells/well and incubated overnight at 37° C. Cell growth was measured by the ATPlite™ istep Kit (PerkinElmer, Waltham, Mass.) according to the manufacturer's instructions. ATPlite™ uses firefly luciferase to indirectly quantify the level of adenosine triphosphate (ATP) as a measure of proliferation and cytotoxicity of cultured mammalian cells. Compounds were diluted in the appropriate cell culture media for each cell type at incremental concentrations ranging from 0.1 nM to 100 tiM. […] Luminescence, quantified as relative luciferase units (RLU), was measured on an Envision plate reader (PerkinElmer). For each replicate, the mean and standard deviation of the RLU at each concentration of compound was calculated. […]

HEPG2 cells = experiment: Cell growth inhibition (ATPlite), HEPG2; type: cell-based; conditions: Homo sapiens, HEPG2, 72 hours, mean±SEM, n = 3, read-out: Inhibition of Tumor Cell Growth (IC50, μM) HEPG2
Procedure: as §1

HL-60 cells [1] = experiment: Cell growth inhibition (ATPlite), HL-60; type: cell-based, human; conditions: HL-60, 72 hours
Procedure: as §1, with “cells.” for “cells. Compounds were diluted in the appropriate cell culture media for each cell type at incremental concentrations ranging from 0.1 nM to 100 tiM.”
HL-60 cells were plated in 96-well microtiter plates in RPMI-1640 media containing 10% FBS at a density of 5000 cells/well. […] Cell growth was measured using the ATPlite™ istep Kit. […]

A549 cells = experiment: Cell growth inhibition (ATPlite), A549; type: cell-based; conditions: Homo sapiens, A549, 72 hours, mean±SEM, n = 3, read-out: Inhibition of Tumor Cell Growth (IC50, μM) A549
Procedure: as §1

HEK293 cells = experiment: Cell growth inhibition (ATPlite), HEK293; type: cell-based; conditions: Homo sapiens, HEK293, 72 hours, mean±SEM, n = 3, read-out: Inhibition of Tumor Cell Growth (IC50, μM) HEK293
Procedure: as §1

HL-60 cells [2] = experiment: Induction of apoptosis (Annexin V/Sytox Red, FACS); type: cell-based, human; conditions: HL-60, 10 μM, 48 hours, versus vehicle (DMSO), FIG. 2
Procedure: HL-60 cells were incubated under similar conditions to the cell growth assay described above (i.e. 50,000 cell/well of a 24-well plate, incubated in cell culture media in the presence of vehicle or compound for 48 hours at 37° C. in an incubator with 5% CO2). Apoptosis was determined by using Annexin V/Sytox Red staining (Life Technologies/Invitrogen) followed by assaying with fluorescence-activated cell sorting (FACS) according to standard protocols. In this assay, vehicle constituted DMSO and the test compound (Compound 101) was diluted to 10 μM with cell culture media from a 10 mM stock solution of Compound 101 in DMSO. The results of the apoptosis assay are described in FIG. 2. […] Compound 101 decreased the number of viable cells in the assay by over 60% and produced nearly a 50% increase in necrotic cells and over a 15% increase in apoptotic cells.

Cynomolgus monkeys = experiment: Blood cell induction (peripheral blood neutrophils); type: in vivo
Procedure: Test compound was evaluated in an animal model for the ability to increase blood cell count, and particularly peripheral blood neutrophils, according to the following protocol. A test compound (Compound 101) was formulated in DMSO:PEG400:PBS at a concentration of 2 mg/mL. Cynomolgus monkeys where then dosed with either vehicle or the test compound via an IV injection for three days. Doses were administered in the morning and then at 5, and 10 hours later. On Day four, a single dose was administered. Blood samples were then collected at the start of the experiment, at Day 4 at 3 hours, 6 hours, and 9 hours after the single dose, and at Day 7. Blood samples were collected and analyzed on a commercial hematology system (ADVIA 2120). The results for neutrophil evaluation are graphically represented in FIG. 3 for both vehicle and Compound 101.

IC50 (HEPG2 cells): 0.9 ± 0.1 µM
IC50 (HL-60 cells [1]; Homo sapiens, mean±SEM, n = 5, read-out: Inhibition of Tumor Cell Growth (IC50, μM) HL-60): 5 ± 2.8 µM
IC50 (A549 cells): 6.1 ± 2.5 µM
Structure (SMILES): Cc1cc(C)cc(N2C(=O)/C(=C(\NNC(=O)CCC(N)=O)c3ccccc3)c3ccc(C(F)(F)F)cc32)c1 [Compound 101]
IC50 (Kasumi-1 cells): 12.1 ± 2.4 µM
effect on HL-60 cell growth (dose response curve, FIG. 1) (HL-60 cells [1]; versus Blank): dose-dependent effect
IC50 (HEK293 cells): 1.4 ± 0.04 µM
increase in apoptotic cells (HL-60 cells [2]): > 15%
increase in necrotic cells (HL-60 cells [2]): ~50%
cytotoxicity at 10 µM (HL-60 cells [2]; Homo sapiens, read-out: decrease in number of viable cells): > 60%
neutrophil count following three days without dosing (Cynomolgus monkeys; Day 7 time point): returned to a level similar to the vehicle
significance of neutrophil count increase versus vehicle (Cynomolgus monkeys; IV, Day 4, 9 hours after the single dose): statistically significant
neutrophil count versus vehicle after the three day dosing phase (Cynomolgus monkeys; IV, three doses daily for three days, single dose Day 4, Day 4 samples, FIG. 3): higher neutrophil count than vehicle
